Measurements taken from patent US20210348164A1, “ENDOGENOUS CYTOPLASMIC ALU COMPLEMENTARY DNA IN AGE-RELATED MACULAR DEGENERATION” (University of Virginia Patent Foundation, priority 2018, published 2021).
“Also recorded” adds a separate entry of the source.

test system: Alu cDNA in primary human RPE cells; test: Alu cDNA in primary human RPE cells (Alu c-PCR, real-time PCR, in situ hybridization, equator blotting); assay type: cell-based; details: primary human RPE cells exposed to Alu RNA, heat shock, or DICER1 AS; NNRTIs at high doses
Procedure: Cell culture and transfection. Primary mouse and human RPE cells were isolated as previously described (Kerur et al., 2018). All cells were maintained at 37° C. in a 5% CO2 environment. Mouse RPE cells were cultured in DMEM supplemented with 20% FBS and penicillin/streptomycin antibiotics at standard concentrations; primary human RPE cells were maintained in DMEM supplemented with 10% FBS and antibiotics. The human RPE cell line ARPE19 was cultured as previously described (Kerur et al., 2018) and maintained in DMEM-F12 containing penicillin/streptomycin, Fungizone, and gentamicin. HEK293T cells were cultured in DMEM with 10% fetal bovine serum (FBS) with 100 U/ml penicillin/streptomycin and 2 mM L-glutamine. Primary wild-type mouse bone marrow-derived macrophages (BMDMs) were isolated, and cultured in Iscove's Modified Dulbecco's Medium (IMDM) supplemented with 30% L929 supernatant containing macrophage-stimulating factor, nonessential amino acids, sodium pyruvate, 10% FBS and antibiotics, 50 μM β-mercaptoethanol (Seo et al., 2015), and serum starved in IMDM with 1% FBS and 100 U/ml penicillin/streptomycin overnight prior to LPS stimulation. NRTIs or NNRTIs were added 30 minutes prior to LPS stimulation and again 30 minutes prior to ATP activation. LPS (100 ng/mL) was added for 3-4 hours prior to the addition of ATP. Cell lysates were collected 30 minutes after addition of ATP (5 mM). Primary human subcutaneous pre-adipocytes (Catalogue No. PCS-210-010, ATCC, Manassas, Va., United States of America) and primary human dermal fibroblasts (Catalogue No. PCS-201-012, ATCC) were grown in fibroblast basal medium with fibroblast growth kit for low serum (ATCC).
Umbilical artery vascular smooth muscle cells (Catalogue No. CC-2579, Lonza, Morristown, N.J., United States of America) were grown in SMGM™-2 Smooth Muscle Growth Medium-2 BULLETKIT™ (Lonza). Primary human skeletal myoblasts (Catalogue No. A11440, Thermo Fisher Scientific) were grown in DMEM with 2% horse serum. Primary human epidermal keratinocytes (Catalogue NO. CO215C, Thermo Fisher Scientific) were grown in EPILIFE® Medium (Thermo Fisher Scientific). Human umbilical vein endothelial cells (HUVEC) were grown in HUVEC EGM™-2 Media (Lonza). Primary human peripheral blood mononuclear cells (Catalogue NO. PCS-800-011, ATCC) were directly used without culture for experiments. RPMI 1640 medium with 10% human serum with human GM-CSF (Miltenyi Biotec Inc., Auburn, Calif., United States of America) was used as media during the experiment. Transfections were performed according to the manufacturer's instructions (LIPOFECTAMINE® 2000, Invitrogen). For transfection of primary human peripheral blood mononuclear cells, HiPerFect Transfection Reagent (Qiagen) was used as previously described (Troegeler et al., 2014). NRTIs were administered 60 minutes before transfection and added again upon replacement of media at 8 hours. To induce acid injury or osmotic stress, primary human RPE cells were treated with HCl (pH 4.0 media) or H2O for 30 minutes, 1 hour, and 2 hours at 37° C. in 5% CO2, respectively. NIH3T3 Tet-ON cells were cultured in DMEM with 10% tetracycline-free fetal bovine serum (FBS) with 100 U/ml penicillin/streptomycin. NIH3T3 Tet-ON cells were transfected with pLD401 (see Taylor et al., 2013; gift of J. D. Boeke, Institute for Systems Genetics, NYU Langone Health, New York, New York, United States of America) and human L1 ORF1p abundance was monitored after 24 hours of doxycycline induction. […]

Molecule	Alu cDNA induction
CC(C)Nc1cccnc1N1CCN(C(=O)c2cc3cc(NS(C)(=O)=O)ccc3[nH]2)CC1 [DLV, delavirdine]	prevented Alu cDNA synthesis; also recorded: reduced
O=C1Nc2ccc(Cl)cc2[C@@](C#CC2CC2)(C(F)(F)F)O1 [EFV, efavirenz]	prevented Alu cDNA synthesis; also recorded: reduced
Cc1ccnc2c1NC(=O)c1cccnc1N2C1CC1 [NVP, nevirapine]	did not prevent Alu cDNA synthesis
L1 siRNA: siRNA targeting L1; cholesterol-conjugated mouse L1 siRNA (SEQ ID NOs: 48 and 49) in vivo, human L1 siRNA sequences in human cells (chain 1 ACUAUUACUCUGAUACCTT; chain 2 UGUACUAAGGUCAAAUCTT; cholesterol conjugated, position not given here)	prevented the production of Alu cDNA; also recorded: reduced
